Activity calls are given as the source filed them.
Columns and labels:
Protein RecA = target: T1, Protein RecA (Mycobacterium tuberculosis, UniProt P9WHJ3); assay: Fluorescence Cell-Free Homogeneous Dose Retest to Identify Inhibitors of RecA-Intein Splicing Activity. [Related pubchem assays (depositor defined):AID2097, AID2223, AID489010, AID492950]; type: functional
T1 sequence (P9WHJ3 whole entry): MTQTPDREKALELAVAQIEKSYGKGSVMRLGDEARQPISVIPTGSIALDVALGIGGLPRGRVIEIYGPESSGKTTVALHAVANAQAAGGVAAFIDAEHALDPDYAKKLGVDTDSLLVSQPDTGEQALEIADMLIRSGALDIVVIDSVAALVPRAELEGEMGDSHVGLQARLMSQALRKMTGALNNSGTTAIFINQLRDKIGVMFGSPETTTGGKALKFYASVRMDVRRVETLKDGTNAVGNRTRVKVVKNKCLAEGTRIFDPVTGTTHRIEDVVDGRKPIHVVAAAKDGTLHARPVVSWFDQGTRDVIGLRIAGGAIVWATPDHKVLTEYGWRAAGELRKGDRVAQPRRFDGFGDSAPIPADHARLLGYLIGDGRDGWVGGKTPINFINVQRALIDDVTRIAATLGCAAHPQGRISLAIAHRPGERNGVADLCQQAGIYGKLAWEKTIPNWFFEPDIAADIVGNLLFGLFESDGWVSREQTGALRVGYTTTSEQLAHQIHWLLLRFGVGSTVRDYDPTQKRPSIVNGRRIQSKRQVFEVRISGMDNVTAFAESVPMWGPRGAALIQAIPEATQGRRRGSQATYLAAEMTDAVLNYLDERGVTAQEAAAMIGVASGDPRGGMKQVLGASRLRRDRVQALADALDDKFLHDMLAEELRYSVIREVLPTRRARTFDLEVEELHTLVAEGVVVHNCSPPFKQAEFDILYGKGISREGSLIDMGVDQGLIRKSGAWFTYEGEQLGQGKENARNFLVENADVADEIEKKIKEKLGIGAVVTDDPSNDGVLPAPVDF

[1] = system: Streptococcus sp. 'group A'; assay: growth inhibition of control SK(-) GAS strain, dose response, counter-screen for streptokinase expression inhibitor project, luminescence, kanamycin, BacTiterGlo, confirmation (AID 1900); type: functional, organism-based
[2] = cytotoxicity in MIN6 insulinoma cells, dose response, cytotoxicity control, cell-based, mouse insulinoma (AID 2122); type: functional;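 also: confirmatory high-throughput counterscreen run to flag cytotoxic compounds; mouse MIN-6 beta cells carrying an insulin promoter eGFP reporter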
[3] = growth suppression of beta-catenin-knockout colon cells, dose response, cell-based, HCT116, human colon tumor (AID 1045); type: functional;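 also: HCT116 colon tumor cells with beta catenin knocked out; cells exposed to compound for 60 hours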
Estrogen receptor beta = Estrogen receptor beta (Homo sapiens, UniProt Q92731);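 also: recombinant ER-beta bound to coactivator SRC1 peptide in presence of estradiol agonist; inhibitors block coactivator peptide binding and lower the FRET signal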
Estrogen receptor beta, sequence (Q92731 whole entry): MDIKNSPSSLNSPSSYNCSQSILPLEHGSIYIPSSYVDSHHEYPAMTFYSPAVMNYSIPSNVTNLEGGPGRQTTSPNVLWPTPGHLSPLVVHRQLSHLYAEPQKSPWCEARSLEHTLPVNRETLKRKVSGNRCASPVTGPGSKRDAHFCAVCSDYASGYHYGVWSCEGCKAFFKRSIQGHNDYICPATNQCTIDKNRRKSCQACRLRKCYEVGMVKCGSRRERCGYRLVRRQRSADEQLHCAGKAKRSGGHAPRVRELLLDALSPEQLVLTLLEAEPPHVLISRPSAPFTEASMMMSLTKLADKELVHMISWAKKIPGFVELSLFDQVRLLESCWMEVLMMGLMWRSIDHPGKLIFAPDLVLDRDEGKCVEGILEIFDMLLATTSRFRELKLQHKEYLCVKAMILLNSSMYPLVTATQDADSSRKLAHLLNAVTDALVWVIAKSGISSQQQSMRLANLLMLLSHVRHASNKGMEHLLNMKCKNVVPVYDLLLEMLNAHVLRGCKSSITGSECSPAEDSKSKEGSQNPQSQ

[4] = target: T2, Apoptotic protease-activating factor 1 (Homo sapiens, UniProt O14727); type: functional
T2 sequence (O14727 whole entry): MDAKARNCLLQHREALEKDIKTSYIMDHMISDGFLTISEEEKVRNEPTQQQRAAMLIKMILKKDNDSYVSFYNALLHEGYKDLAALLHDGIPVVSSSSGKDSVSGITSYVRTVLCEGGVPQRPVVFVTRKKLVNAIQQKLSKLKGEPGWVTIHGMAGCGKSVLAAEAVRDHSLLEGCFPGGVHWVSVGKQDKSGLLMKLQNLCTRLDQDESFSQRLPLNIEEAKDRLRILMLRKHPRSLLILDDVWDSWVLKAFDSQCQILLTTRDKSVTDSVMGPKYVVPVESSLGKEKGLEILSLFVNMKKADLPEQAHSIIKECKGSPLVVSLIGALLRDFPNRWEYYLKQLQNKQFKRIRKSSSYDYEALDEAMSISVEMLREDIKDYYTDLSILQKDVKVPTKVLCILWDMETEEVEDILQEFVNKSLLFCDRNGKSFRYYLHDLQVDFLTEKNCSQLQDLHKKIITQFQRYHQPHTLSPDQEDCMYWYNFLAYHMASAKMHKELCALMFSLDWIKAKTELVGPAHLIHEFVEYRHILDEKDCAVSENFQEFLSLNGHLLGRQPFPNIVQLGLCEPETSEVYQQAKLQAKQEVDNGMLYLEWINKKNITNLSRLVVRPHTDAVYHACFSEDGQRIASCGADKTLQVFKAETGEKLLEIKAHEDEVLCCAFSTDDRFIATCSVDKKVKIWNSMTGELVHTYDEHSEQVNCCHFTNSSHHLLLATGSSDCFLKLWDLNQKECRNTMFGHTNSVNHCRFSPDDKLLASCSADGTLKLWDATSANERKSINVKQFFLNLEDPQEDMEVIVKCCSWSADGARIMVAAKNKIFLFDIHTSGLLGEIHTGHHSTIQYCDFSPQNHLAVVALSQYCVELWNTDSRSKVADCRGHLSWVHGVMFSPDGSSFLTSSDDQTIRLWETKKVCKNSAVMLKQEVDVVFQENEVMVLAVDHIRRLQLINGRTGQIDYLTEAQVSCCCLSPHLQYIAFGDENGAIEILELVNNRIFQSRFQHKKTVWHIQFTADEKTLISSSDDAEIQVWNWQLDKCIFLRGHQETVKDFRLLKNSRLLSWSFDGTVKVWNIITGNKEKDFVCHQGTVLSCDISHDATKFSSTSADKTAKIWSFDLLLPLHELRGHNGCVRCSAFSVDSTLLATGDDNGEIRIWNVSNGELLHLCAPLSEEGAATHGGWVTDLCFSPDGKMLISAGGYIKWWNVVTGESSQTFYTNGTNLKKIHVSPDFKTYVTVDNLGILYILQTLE

**Q.** Which EC50 (Protein RecA) does the source give for `COc1ccc(C(=O)c2c(C(F)(F)F)oc3c2C(=O)c2ccccc2C3=O)cc1` here?
**A.** The EC50 was 0.0825 µM (active).

**Q.** What about the EC50 [1] of the same compound?
**A.** The EC50 was 2.26 µM (active).

**Q.** What about the IC50 [2] of the same compound?
**A.** Its IC50 is 2.39 µM (active).

**Q.** What about the EC50 [3] of the same compound?
**A.** Its EC50 is 2.55 µM (active).

**Q.** What about the IC50 (Estrogen receptor beta) of the same compound?
**A.** The IC50 was > 50 µM (not active).

**Q.** What about the IC50 [4] of the same compound?
**A.** The IC50 was 5.29 µM (active).
